Data reported in article doi:10.1101/2024.06.17.599304v1, “Dizocilpine derivatives with neuroprotective effect lacking the psychomimetic side effects” (biorxiv, 2024).
Where a name gives a salt, the structure may show the parent alone. Read-outs that look alike come from different tables or passages of the source.

What was measured:
[1] = target: T1, human recombinant AChE (hAChE) (Homo sapiens, UniProt P22303); assay: modified Ellman's method; format: biochemical
T1 construct: recombinant enzyme purchased from Merck
T1 sequence (P22303 32-614): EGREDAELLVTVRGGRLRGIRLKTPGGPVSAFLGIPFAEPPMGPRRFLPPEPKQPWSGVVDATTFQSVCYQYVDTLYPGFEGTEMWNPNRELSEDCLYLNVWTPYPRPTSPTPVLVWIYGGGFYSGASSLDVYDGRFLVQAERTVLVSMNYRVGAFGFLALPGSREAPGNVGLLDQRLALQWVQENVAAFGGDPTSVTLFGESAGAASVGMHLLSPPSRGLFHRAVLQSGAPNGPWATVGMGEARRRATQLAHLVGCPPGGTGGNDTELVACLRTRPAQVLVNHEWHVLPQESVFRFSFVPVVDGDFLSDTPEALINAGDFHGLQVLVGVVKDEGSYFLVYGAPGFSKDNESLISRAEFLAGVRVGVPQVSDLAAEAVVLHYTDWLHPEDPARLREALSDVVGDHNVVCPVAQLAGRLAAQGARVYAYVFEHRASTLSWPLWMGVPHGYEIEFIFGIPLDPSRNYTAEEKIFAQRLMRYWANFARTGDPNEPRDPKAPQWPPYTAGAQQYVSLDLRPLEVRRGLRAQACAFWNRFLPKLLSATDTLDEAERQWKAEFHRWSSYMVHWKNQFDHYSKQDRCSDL

[2] = target: T2, human plasmatic butyrylcholinesterase (hBChE) (Homo sapiens, UniProt P06276); assay: biochemical
T2 construct: gene BCHE
T2 sequence (P06276 29-602): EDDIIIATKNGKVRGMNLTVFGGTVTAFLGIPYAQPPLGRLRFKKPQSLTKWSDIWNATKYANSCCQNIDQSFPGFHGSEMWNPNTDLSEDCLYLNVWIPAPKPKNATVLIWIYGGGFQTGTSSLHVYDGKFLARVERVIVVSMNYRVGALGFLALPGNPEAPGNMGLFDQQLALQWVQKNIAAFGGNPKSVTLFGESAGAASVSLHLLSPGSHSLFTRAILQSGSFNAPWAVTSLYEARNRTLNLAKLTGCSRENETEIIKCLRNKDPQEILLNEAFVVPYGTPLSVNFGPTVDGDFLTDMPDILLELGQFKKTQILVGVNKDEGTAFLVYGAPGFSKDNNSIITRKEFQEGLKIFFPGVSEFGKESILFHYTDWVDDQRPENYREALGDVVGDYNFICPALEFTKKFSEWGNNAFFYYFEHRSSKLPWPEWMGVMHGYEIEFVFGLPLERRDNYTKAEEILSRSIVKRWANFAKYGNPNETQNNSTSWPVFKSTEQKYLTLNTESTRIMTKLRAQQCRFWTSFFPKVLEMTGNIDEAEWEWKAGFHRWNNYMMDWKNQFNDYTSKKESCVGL

hGluN1/hGluN2B [3] = target: T3, hGluN1/hGluN2B (Homo sapiens, UniProt Q05586+Q13224); assay: whole-cell patch clamp, HEK293; format: cell-based; parameters: gene GRIN1; cDNA vectors for human GluN1-1a and GluN2B co-transfected with GFP in HEK293 cells; diheteromeric receptor; settings: -60 mV; 1 mM L-glutamate, 100 µM glycine; pH 7.3; voltage-dependent block
T3 sequence (Q13224 27-1484, other chains not shown): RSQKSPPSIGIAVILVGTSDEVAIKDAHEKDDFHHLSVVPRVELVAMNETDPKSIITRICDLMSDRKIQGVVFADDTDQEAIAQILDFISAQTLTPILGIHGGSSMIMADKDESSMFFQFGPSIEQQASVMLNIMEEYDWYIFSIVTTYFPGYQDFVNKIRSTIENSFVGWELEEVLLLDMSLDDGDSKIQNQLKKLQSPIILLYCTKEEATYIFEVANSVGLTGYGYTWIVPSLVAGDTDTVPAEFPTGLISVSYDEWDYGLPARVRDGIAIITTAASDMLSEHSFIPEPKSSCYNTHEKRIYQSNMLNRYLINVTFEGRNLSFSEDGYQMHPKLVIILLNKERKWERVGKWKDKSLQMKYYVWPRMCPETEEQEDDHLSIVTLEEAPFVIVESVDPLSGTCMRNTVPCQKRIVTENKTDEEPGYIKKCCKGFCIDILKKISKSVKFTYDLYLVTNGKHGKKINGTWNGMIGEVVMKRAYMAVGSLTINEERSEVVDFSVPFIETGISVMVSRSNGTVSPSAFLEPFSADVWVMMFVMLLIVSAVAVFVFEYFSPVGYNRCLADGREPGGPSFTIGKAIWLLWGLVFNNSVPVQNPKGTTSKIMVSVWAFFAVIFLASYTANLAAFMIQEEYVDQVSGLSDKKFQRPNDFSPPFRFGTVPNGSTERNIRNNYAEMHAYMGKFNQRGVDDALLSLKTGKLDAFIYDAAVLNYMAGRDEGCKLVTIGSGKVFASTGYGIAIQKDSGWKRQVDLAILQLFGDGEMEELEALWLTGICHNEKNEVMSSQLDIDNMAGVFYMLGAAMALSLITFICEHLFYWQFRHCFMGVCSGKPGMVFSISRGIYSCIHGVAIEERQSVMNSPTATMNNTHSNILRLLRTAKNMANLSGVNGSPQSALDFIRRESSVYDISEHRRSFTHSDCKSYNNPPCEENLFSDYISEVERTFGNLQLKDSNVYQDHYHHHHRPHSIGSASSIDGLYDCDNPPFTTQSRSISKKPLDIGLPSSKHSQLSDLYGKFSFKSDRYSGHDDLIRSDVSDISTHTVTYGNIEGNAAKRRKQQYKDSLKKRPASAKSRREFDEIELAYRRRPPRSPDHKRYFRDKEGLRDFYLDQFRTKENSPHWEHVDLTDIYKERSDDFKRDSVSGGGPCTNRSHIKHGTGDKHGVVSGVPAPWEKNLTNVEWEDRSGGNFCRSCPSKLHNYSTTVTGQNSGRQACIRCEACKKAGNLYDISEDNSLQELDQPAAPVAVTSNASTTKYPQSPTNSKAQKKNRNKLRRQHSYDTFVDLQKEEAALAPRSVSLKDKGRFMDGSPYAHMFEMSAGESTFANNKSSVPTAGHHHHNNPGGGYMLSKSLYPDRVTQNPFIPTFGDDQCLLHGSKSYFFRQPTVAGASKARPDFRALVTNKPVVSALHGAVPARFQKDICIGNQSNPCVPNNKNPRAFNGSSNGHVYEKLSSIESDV
Source text: whole-cell patch clamp, HEK293 on hGluN1/hGluN2B

hGluN1/hGluN2A [4] = target: T4, hGluN1/hGluN2A (Homo sapiens, UniProt Q05586+Q12879); assay: whole-cell patch clamp, HEK293; format: cell-based; parameters: gene GRIN1; cDNA vectors for human GluN1-1a and GluN2A co-transfected with GFP in HEK293 cells; diheteromeric receptor; settings: -60 mV; 1 mM L-glutamate, 100 µM glycine; pH 7.3; voltage-dependent block
T4 sequence (Q12879 23-1464, other chains not shown): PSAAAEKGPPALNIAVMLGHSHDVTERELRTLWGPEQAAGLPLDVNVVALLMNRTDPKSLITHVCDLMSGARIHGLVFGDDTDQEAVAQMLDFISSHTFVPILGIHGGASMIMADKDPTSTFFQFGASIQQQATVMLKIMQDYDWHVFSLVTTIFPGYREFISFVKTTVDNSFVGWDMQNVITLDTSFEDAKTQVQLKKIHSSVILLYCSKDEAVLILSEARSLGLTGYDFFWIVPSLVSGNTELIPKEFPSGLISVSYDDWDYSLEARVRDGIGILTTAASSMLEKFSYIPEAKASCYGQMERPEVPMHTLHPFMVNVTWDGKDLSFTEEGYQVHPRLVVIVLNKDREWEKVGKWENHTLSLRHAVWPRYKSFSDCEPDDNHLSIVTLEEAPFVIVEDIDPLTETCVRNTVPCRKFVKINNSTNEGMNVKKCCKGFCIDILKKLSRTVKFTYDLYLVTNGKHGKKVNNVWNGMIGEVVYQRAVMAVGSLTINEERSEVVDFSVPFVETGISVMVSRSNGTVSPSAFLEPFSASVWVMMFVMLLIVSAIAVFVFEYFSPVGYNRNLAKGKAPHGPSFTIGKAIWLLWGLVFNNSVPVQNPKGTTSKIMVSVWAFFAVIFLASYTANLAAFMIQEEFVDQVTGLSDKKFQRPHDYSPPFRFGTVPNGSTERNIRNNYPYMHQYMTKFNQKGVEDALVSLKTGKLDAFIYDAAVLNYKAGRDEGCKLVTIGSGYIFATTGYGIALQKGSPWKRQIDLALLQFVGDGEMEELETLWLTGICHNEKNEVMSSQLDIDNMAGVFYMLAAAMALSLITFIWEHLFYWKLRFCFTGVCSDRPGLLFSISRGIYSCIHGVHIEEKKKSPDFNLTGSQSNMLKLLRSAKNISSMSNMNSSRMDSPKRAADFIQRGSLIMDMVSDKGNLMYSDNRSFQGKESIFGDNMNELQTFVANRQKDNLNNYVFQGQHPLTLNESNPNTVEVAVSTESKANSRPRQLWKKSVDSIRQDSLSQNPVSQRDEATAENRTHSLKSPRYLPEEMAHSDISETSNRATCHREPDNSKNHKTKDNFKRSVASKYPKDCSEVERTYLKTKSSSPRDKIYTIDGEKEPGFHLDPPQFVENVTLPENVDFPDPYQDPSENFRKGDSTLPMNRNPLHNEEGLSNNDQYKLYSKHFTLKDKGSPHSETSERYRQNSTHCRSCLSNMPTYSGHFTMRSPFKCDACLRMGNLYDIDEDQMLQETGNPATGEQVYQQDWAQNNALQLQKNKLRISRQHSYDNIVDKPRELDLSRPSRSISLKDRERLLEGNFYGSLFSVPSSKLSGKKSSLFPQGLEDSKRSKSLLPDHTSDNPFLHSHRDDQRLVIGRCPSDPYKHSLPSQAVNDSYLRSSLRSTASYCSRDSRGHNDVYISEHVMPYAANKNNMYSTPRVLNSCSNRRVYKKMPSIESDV
Source text: whole-cell patch clamp, HEK293 on hGluN1/hGluN2A

hGluN1/hGluN2A [5] = target: T4, hGluN1/hGluN2A; assay: cell-based; parameters: gene GRIN1; cDNA vectors for human GluN1-1a and GluN2A co-transfected with GFP in HEK293 cells; diheteromeric receptor; whole-cell voltage-clamp electrophysiology, inhibition of steady-state L-glutamate-induced currents at -60 mV; settings: HEK293; -60 mV, 1 mM L-glutamate
Procedure: (§1) First, we determined the relative inhibition of all novel compounds on the two major diheteromeric NMDA receptor subtypes in the adult cortex – GluN1/GluN2A and GluN1/GluN2B [1] – using a clinically relevant concentration (3 µM). We kept the measured cells at a membrane potential of -60 mV, and the values of relative inhibition by the compounds were calculated from the L-glutamate-induced responses of human versions of the GluN1/GluN2A (hGluN1/hGluN2A) and GluN1/GluN2B (hGluN1/hGluN2B) receptors obtained under steady-state conditions. […] Specifically, in the case of hGluN1/hGluN2A receptors, we obtained relative inhibition values ranging from ∼5% for compound 3h to ∼93% for compound 6f, while for hGluN1/hGluN2B receptors, we measured values ranging from ∼3% for compound 3i to ∼92% for compound 6g at a fixed dose of 3 µM of the tested compound. […] It can be assumed that the positive and negative effects of a given inhibitor of the NMDA receptor in vivo are caused by their affinity and the kinetics of inhibition, in addition to their availability in the CNS. […] In further experiments, we generated concentration-response curves for 6f (0.03-10 µM) and 3l (0.3-300 µM) on both hGluN1/hGluN2A and hGluN1/hGluN2B receptors at negative (-60 mV) and positive (40 mV) membrane potentials (Fig. 2A-D). […] (A, C) Representative whole-cell voltage-clamp recordings of HEK293 cells expressing hGluN1/hGluN2A or hGluN1/hGluN2B receptors showing the inhibitory effects of compound 6f (0.03 - 300 µM) and compound 3l (0.3 - 300 µM) at membrane potentials of 40 mV (A) and -60 mV (C). Glu = 1 mM L-glutamate. (B, D) Normalized inhibitory concentration-response curves for compound 6f and compound 3l for hGluN1/hGluN2A and hGluN1/hGluN2B receptors at membrane potentials of 40 mV (B) and -60 mV (D). Concentration-response curves were fitted using Equation 1; the resulting IC50 values, Hill coefficients, and the numbers of cells measured for each membrane potential are shown in Table 3.

hGluN1/hGluN2B [6] = target: T3, hGluN1/hGluN2B; assay: cell-based; parameters: gene GRIN1; cDNA vectors for human GluN1-1a and GluN2B co-transfected with GFP in HEK293 cells; diheteromeric receptor; whole-cell voltage-clamp electrophysiology, inhibition of steady-state L-glutamate-induced currents at -60 mV; settings: HEK293; -60 mV, 1 mM L-glutamate
Procedure: as §1

[7] = target: T2, human plasmatic butyrylcholinesterase (hBChE)

Compound	IC50 [1] [µM]	IC50 [2] [µM]	IC50 (hGluN1/hGluN2B [3]) [µM]	IC50 (hGluN1/hGluN2A [4]) [µM]	inhibition at 3 µM (hGluN1/hGluN2A [5]) [%]	inhibition at 3 µM (hGluN1/hGluN2B [6]) [%]	IC50 [7] [µM]
OCCNC1c2ccccc2CCc2ccccc21 [3l, 2-((10,11-dihydro-5H-dibenzo[a,d][7]annulen-5-yl)amino)ethanol hydrochloride]	> 100	> 100	4.4 ± 0.42	4.42 ± 0.9	48 ± 5.18	49.7 ± 4.47	
CC(C)CNC1c2ccccc2C=Cc2ccccc21 [6f, N-isobutyl-5H-dibenzo[a,d][7]annulen-5-amine hydrochloride]	> 100	> 100	0.16 ± 0.01	0.36 ± 0.06	93.2 ± 1.11	91.77 ± 0.71	
C1=Cc2ccccc2C(N2CCCCC2)c2ccccc21 [6h, 1-(5H-dibenzo[a,d][7]annulen-5-yl)piperidine hydrochloride]					29.9 ± 2.73	58.4 ± 4.37	16.5 ± 0.9
